{
  "source": "patent US7858624B2",
  "about": "“Piperidine and morpholine renin inhibitors” (Vitae Pharmaceuticals, Inc., priority 2006, dated 2010)",
  "target": "T1, trypsin-activated recombinant human renin (Homo sapiens, UniProt P00797)",
  "T1 sequence (P00797 67-406)": "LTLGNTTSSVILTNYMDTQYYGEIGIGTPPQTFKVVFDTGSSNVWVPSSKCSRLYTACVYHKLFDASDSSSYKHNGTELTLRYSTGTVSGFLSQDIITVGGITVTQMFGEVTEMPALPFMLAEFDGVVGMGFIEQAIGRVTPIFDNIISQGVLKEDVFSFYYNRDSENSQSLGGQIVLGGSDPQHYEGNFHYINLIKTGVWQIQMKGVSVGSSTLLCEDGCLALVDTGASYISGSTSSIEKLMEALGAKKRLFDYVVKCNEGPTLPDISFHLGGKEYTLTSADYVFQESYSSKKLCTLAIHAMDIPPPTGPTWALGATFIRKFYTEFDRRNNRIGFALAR",
  "assay": "In vitro IC50 for renin, fluorescence increase of internally quenched peptide substrate (protocol of Example 2)",
  "assay_type": "biochemical",
  "conditions": "protocol described in Example 2; DABCYL/EDANS peptide substrate, pH 7.0, rt",
  "description": "The sequence of this peptide corresponds to the sequence of human angiotensinogen. The following test protocol is used: All reactions are carried out in a flat bottom white opaque microtiter plate. A 4 μL aliquot of 400 μM renin substrate (DABCYL-γ-Abu-Ile-His-Pro-Phe-His-Leu-Val-Ile-His-Thr-EDANS) in 192 μL assay buffer (50 mM BES, 150 mM NaCl, 0.25 mg/mL bovine serum albumin, pH7.0) is added to 4 μL of test compound in DMSO at various concentrations ranging from 10 μM to 1 nM final concentrations. Next, 100 μL of trypsin-activated recombinant human renin (final enzyme concentration of 0.2-2 nM) in assay buffer is added, and the solution is mixed by pipetting. The increase in fluorescence at 495 nm (excitation at 340 nm) is measured for 60-360 min at rt using a Perkin-Elmer Fusion microplate reader. The slope of a linear portion of the plot of fluorescence increase as a function of time is then determined, and the rate is used for calculating percent inhibition in relation to uninhibited control. […] The IC50 is defined as the concentration of a particular inhibitor that reduces the formation of product by 50% relative to a control sample containing no inhibitor. (Wang G. T. et al. Anal. Biochem. 1993, 210, 351; Nakamura, N. et al. J. Biochem. (Toko) 1991, 109, 741; Murakaini, K. et al. Anal Biochem. 1981, 110, 232).",
  "data": [
    {"smiles": "CCCCNC(=O)C[C@H](O)[C@H](CC1CCCCC1)NC(=O)N1CCC[C@@H]([C@@H](OCCNC(=O)OC)c2cccc(Cl)c2)C1", "note": "[Example 1, methyl 2-((R)-((R)-1-((2S,3S)-5-(butylamino)-1-cyclohexyl-3-hydroxy-5-oxopentan-2-ylcarbamoyl)piperidin-3-yl)(3-chlorophenyl)methoxy)ethylcarbamate]", "values": [
      {"measurement": "IC50", "result": 113, "unit": "nM"}
    ]}
  ]
}
